Patent EP1954678B1, “NOVEL NK1 AND NK2 ANTAGONISTS” (Abbott Products GmbH, priority 2005, dated 2007)
Read-outs that look alike come from different tables or passages of the source.

Legend:
[1] = biological target: T1, human NK2 receptors (Homo sapiens, UniProt P21452); test: Binding of the test substances to NK2 receptors in vitro ([3H]-SR 48968 displacement, CHO cell membranes); conditions: [3H]-SR 48968 as ligand; membranes of CHO cells expressing the human NK2 receptor; 90 min incubation; Ki calculated from IC50; read-out: pKi (NK2) (converted)
T1 construct: expressed in transfected cells; host or cells: CHO cells (membrane preparation)
T1 sequence (P21452 1-398): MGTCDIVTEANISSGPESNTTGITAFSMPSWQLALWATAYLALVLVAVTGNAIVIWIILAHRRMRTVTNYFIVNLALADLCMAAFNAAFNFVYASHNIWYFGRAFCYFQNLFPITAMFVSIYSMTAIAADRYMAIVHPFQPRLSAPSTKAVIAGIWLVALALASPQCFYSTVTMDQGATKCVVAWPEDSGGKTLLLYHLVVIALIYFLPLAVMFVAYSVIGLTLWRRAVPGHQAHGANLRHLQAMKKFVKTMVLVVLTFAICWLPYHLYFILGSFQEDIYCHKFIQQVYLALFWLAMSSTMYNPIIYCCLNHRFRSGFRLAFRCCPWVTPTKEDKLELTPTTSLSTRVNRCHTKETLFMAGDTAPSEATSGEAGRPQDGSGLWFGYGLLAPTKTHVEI
Experimental: The affinity of the test substances to human NK2 receptors was measured in vitro. The ability of the test substances to displace the selective NK2 receptor antagonist SR 48968 (= saredutant) used as reference ligand from its corresponding bond was determined.
The receptor binding studies were carried out with radioactively marked [^3H]-SR 48968 (from Amersham) as ligand. For the binding test, different samples of a membrane preparation of CHO cells (= egg cells of the Chinese hamster, Chinese hamster oocytes), which express the human NK2 receptor (for preparation, see N.P. Gerard et al., Journal of Biological Chemistry 265/33 (1990) 20455-20462), were incubated for 90 minutes (= min.) with a solution of the marked ligand, with the incubation mixtures containing no test substance or additions of different concentrations of test substance. Then in each case the membrane-bound ligands in the samples were separated from free ligands by filtration. The fraction remaining in the filter was washed several times with buffer solution, before its radioactivity was measured using a liquid scintillation counter. That concentration which effects half-maximum displacement of the bound reference ligand was determined as IC50 of the respective test substance. The inhibition constant (Ki value) of the test substance was calculated from the respective IC50 value, and was stated as the negative logarithmised value thereof (pKi).
If several measurements were performed, the average thereof was listed each time. The pKi value is a measurement of the affinity of the test substances to human NK2 receptors.

[2] = biological target: T2, NK2 receptors (Cavia porcellus, UniProt Q64077); test: NK-2-receptor-antagonistic effectiveness in vivo in anaesthetised guinea pigs (NKA test stimulus: late hypotension, bronchoconstriction, colonic pressure); design: from tissue; host or cells: whole anaesthetised guinea pig (in vivo); species or system Pirbright-White guinea pigs; conditions: for ED50: guinea pig; for oral activity as NK2 receptor antagonist: result in words, oral administration
T2 sequence (Q64077 1-402): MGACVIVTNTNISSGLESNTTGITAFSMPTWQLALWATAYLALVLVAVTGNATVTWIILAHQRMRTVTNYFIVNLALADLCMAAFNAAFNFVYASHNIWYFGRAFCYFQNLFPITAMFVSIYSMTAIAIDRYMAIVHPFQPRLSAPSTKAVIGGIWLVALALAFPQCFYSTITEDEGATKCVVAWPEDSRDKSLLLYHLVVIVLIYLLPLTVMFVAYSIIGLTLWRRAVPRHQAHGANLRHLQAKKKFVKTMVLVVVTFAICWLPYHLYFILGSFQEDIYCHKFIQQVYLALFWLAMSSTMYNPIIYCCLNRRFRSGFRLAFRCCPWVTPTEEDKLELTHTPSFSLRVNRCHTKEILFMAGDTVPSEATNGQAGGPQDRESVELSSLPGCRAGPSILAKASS
Description: The NK-1- and NK-2-antagonistic activities of the test substances were investigated in anaesthetised guinea pigs in each case after intravenous (= i.v.) and oral (= p.o.) administration in vivo. With the present test model it is possible to detect both NK-2-antagonistic effects in three different organ systems (respiratory tracts, colon and circulation) and NK-1-antagonistic effects (rapid drop in blood pressure) in an animal simultaneously.
Pirbright-White guinea pigs of a body weight of 500-700 g were anaesthetised with ketamine/xylazine (67/13 mg/kg subcutaneously, initial dose, further doses administered as required). The animals were provided with an intravenous catheter in order to administer the substance and an intra-arterial catheter to measure the blood pressure. The animals were artificially ventilated via a tracheal cannula and the respiratory pressure was recorded by means of a pressure transducer. A balloon was introduced into the distal colon of the animals for manometric recording of colon motility by means of a pressure transducer. Blood pressure, heart rate, respiratory pressure and colonic pressure were measured continuously for each animal and plotted on a recorder and by means of a digital data-processing system. […] The second phase of delayed hypotension (= phase of maximum hypotension after 2-5 min.) on the other hand is mediated via NK-2 receptors, since they can be blocked by specific NK-2 receptor antagonists. […] Table 6: NK-1- and NK-2-receptor-antagonistic effective-ness of the test substances of Formula I on guinea pigs in vivo after intravenous administration
These ED50 values obtained from cumulative dose effect curves are plotted in table 6.
The antagonistic effects of the test substances were then determined as "area under the curve" ("AUC") over the investigation period after administration of the test substances (1 - 180 min after administration) and the ED50 values after oral administration obtained therefrom were plotted in table 7. Table 7: NK-1- and NK-2-receptor-antagonistic effective-ness of the test substances of Formula I on guinea pigs in vivo after oral administration

[3] = iv, read-out: ED50 iv after 1 min (cumulative) NK2 (broncho-constriction)
[4] = iv, read-out: ED50 iv after 1 min (cumulative) NK2 (colonic motility)
[5] = iv, read-out: ED50 iv after 1 min (cumulative) NK2 (late hypotension)
[6] = oral, from AUC of antagonistic effect 1 - 180 min after administration, read-out: ED50 AUC1-180 min oral NK2 (broncho-constriction)
[7] = oral, from AUC of antagonistic effect 1 - 180 min after administration, read-out: ED50 AUC1-180 min oral NK2 (colonic motility)
[8] = oral, from AUC of antagonistic effect 1 - 180 min after administration, read-out: ED50 AUC1-180 min oral NK2 (late hypotension)

Row | Ki [1] [µM] | ED50 [2, 3] [µmol/kg] | ED50 [2, 4] [µmol/kg] | ED50 [2, 5] [µmol/kg] | ED50 [2, 6] [µmol/kg] | ED50 [2, 7] [µmol/kg] | ED50 [2, 8] [µmol/kg] | oral activity as NK2 receptor antagonist [2] | Structure (SMILES)
1 | 0.00794 | 0.321 | 0.027 | 0.643 | 3.1 | 5.5 | 3.1 | active orally | CN(C[C@@H](CCN1CCN([C@@H](c2ccco2)[C@H](O)CO)CC1)c1ccc(Cl)c(Cl)c1)C(=O)c1cc(C#N)cc2ccccc12 [Compound 1, 3-cyano-N-[(2S)-2-(3,4-dichlorophenyl)-4-{4-[(1R,2S)-1-(2-furyl)-2,3-dihydroxypropyl]piperazin-1-yl}butyl]-N-methyl-1-naphthamide]
2 | 0.0794 | < 0.01 | 0.085 | 0.106 | 11.7 | 6 | 14.8 | active orally | CN(C[C@@H](CCN1CCN([C@@H](c2ccco2)[C@H](O)[C@@H](O)[C@H](O)CO)CC1)c1ccc(Cl)c(Cl)c1)C(=O)c1cc(C#N)cc2ccccc12 [Compound 2, 3-cyano-N-[(2S)-2-(3,4-dichlorophenyl)-4-{4-[(1R,2S,3R,4R)-1-(2-furyl)-2,3,4,5-tetrahydroxypentyl]piperazin-1-yl}butyl]-N-methyl-1-naphthamide]
3 | 0.0398 | 0.595 | 0.05 | 0.282 |  |  |  |  | CN(C[C@@H](CCN1CCN(C(CO)(CO)c2ccco2)CC1)c1ccc(Cl)c(Cl)c1)C(=O)c1cc(C#N)cc2ccccc12 [Compound 6, 3-cyano-N-[(2S)-2-(3,4-dichlorophenyl)-4-{4-[1-(2-furyl)-2-hydroxy-1-(hydroxymethyl)ethyl]piperazin-1-yl}butyl]-N-methyl-1-naphthamide]
4 | 0.0251 | 0.13 | 0.132 | 0.145 |  |  |  |  | CN(C[C@@H](CCN1CCN([C@@H](c2ccco2)[C@H]2COC(=O)O2)CC1)c1ccc(Cl)c(Cl)c1)C(=O)c1cc(C#N)cc2ccccc12 [Compound 11, 3-cya no-N-[(2S)-2-(3,4-dichlorophenyl)-4-(4-{(R)-2-furyl[(4S)-2-oxo-1,3-dioxolan-4-yl]methyl}piperazin-1-yl)butyl]-N-methyl-1-naphthamide]
